According to paper PMC6171417, “Carbonic anhydrase inhibition with a series of novel benzenesulfonamide-triazole conjugates” (Journal of Enzyme Inhibition and Medicinal Chemistry, 2018):

Tests used:
Test in all cases: cells
Set-up in all cases: species or system NCI human tumour cell line panel
HS 578T = details: Homo sapiens, Hs-578T; growth inhibition (GI%), single dose
TK-10 = details: Homo sapiens, TK-10; growth inhibition (GI%), single dose
NCI-H226 = details: Homo sapiens, NCI-H226; growth inhibition (GI%), single dose
U251 = details: Homo sapiens, U-251; growth inhibition (GI%), single dose
MDA-MB-435 = details: Homo sapiens, MDA-MB-435; growth inhibition (GI%), single dose
KM12 = details: Homo sapiens, KM12; growth inhibition (GI%), single dose
MOLT-4 = details: Homo sapiens, MOLT-4; growth inhibition (GI%), single dose
M14 = details: Homo sapiens, M14; growth inhibition (GI%), single dose
CCRF-CEM = details: Homo sapiens, CCRF-CEM; growth inhibition (GI%), single dose
UO-31 = details: Homo sapiens, UO-31; growth inhibition (GI%), single dose
NCI-H522 = details: Homo sapiens, NCI-H522; growth inhibition (GI%), single dose
BT-549 = details: Homo sapiens, BT-549; growth inhibition (GI%), single dose
LOX IMVI = details: Homo sapiens, LOX IMVI; growth inhibition (GI%), single dose
HCT-116 = details: Homo sapiens, HCT-116; growth inhibition (GI%), single dose
NCI-H322M = details: Homo sapiens, NCI-H322M; growth inhibition (GI%), single dose
SNB-75 = details: Homo sapiens, SNB-75; growth inhibition (GI%), single dose
HL-60(TB) = details: Homo sapiens, HL-60; growth inhibition (GI%), single dose
HCT-15 = details: Homo sapiens, HCT-15; growth inhibition (GI%), single dose
MDA-MB-468 = details: Homo sapiens, MDA-MB-468; growth inhibition (GI%), single dose
A498 = details: Homo sapiens, A498; growth inhibition (GI%), single dose
786-0 = details: Homo sapiens, 786-0; growth inhibition (GI%), single dose
OVCAR-5 = details: Homo sapiens, OVCAR-5; growth inhibition (GI%), single dose
UACC-257 = details: Homo sapiens, UACC-257; growth inhibition (GI%), single dose
SF-268 = details: Homo sapiens, SF-268; growth inhibition (GI%), single dose
SK-OV-3 = details: Homo sapiens, SK-OV-3; growth inhibition (GI%), single dose
RPMI-8226 = details: Homo sapiens, RPMI-8226; growth inhibition (GI%), single dose
T-47D = details: Homo sapiens, T47D; growth inhibition (GI%), single dose
PC-3 = details: Homo sapiens, PC-3; growth inhibition (GI%), single dose
EKVX = details: Homo sapiens, EKVX; growth inhibition (GI%), single dose
MCF7 = details: Homo sapiens, MCF7; growth inhibition (GI%), single dose

SMILES: N#Cc1nnn(-c2ccc(S(N)(=O)=O)cc2)c1NC(=O)CCl [compound 5, 5]
- inhibition at 10 µM (HS 578T): 99.8%
- inhibition at 10 µM (TK-10): 3.6%
- inhibition at 10 µM (NCI-H226): 4.6%
- inhibition at 10 µM (U251): 7.7%
- inhibition at 10 µM (MDA-MB-435): 0.4%
- inhibition at 10 µM (KM12): 5.2%
- inhibition at 10 µM (MOLT-4): 7.7%
- inhibition at 10 µM (M14): 4.7%
- inhibition at 10 µM (CCRF-CEM): 11.3%
- inhibition at 10 µM (UO-31): 13.5%
- inhibition at 10 µM (NCI-H522): 5.1%
- inhibition at 10 µM (BT-549): 3.1%
- inhibition at 10 µM (LOX IMVI): 5.5%
- inhibition at 10 µM (HCT-116): 5.4%
- inhibition at 10 µM (NCI-H322M): 6.6%
- inhibition at 10 µM (SNB-75): 14.5%
- inhibition at 10 µM (HL-60(TB)): 22.5%
- inhibition at 10 µM (HCT-15): 4.1%
- inhibition at 10 µM (MDA-MB-468): 1.3%
- inhibition at 10 µM (A498): 8.6%
- inhibition at 10 µM (786-0): 2.1%
- inhibition at 10 µM (OVCAR-5): 3.4%
- inhibition at 10 µM (UACC-257): 11.1%
- inhibition at 10 µM (SF-268): 2.5%
- inhibition at 10 µM (SK-OV-3): 3.5%
- inhibition at 10 µM (RPMI-8226): 8.7%
- inhibition at 10 µM (T-47D): 4.8%
- inhibition at 10 µM (PC-3): 10.3%
- inhibition at 10 µM (EKVX): 8.6%
- inhibition at 10 µM (MCF7): 9.1%
